Where a SMILES comes first, the peptide text is derived from it. Bridges are numbered along the chain shown (N, C = ends). Roman numbers before positions name the chains, in order. [ ]: non-standard residue; d: D form. The star is where a group is joined. NαAmidinoTrp = N=C(N)N[C@@H](Cc1c[nH]c2ccccc12)C(=O)*; Hyp = O=C(O)[C@@H]1C[C@@H](O)CN1; Pen = CC(C)(S)[C@H](N)C(=O)O; Tle = CC(C)(C)[C@H](N)C(=O)O; dDab = NCC[C@@H](N)C(=O)O; hCys = N[C@@H](CCS)C(=O)O; Dab = NCC[C@H](N)C(=O)O; dAze = O=C(O)[C@H]1CCN1
What was measured:
Type in all cases: cell-based
[1] = test system: Escherichia coli ATCC 25922; settings: ATCC 25922
Experimental: (§1) Lyophilized peptides were weighed on a Microbalance (Mettler MT5) and dissolved in sterile water to a final concentration of 1 mg/mL. Stock solutions were kept at +4° C., light protected.
(§2) The in vitro antimicrobial activities of the peptides were determined in 96-well plates (Greiner, polystyrene) by the standard CLSI broth microdilution method (Clinical and Laboratory Standards Institute 2014. Performance standards for antimicrobial susceptibility testing, 24th informational supplement. Approved standard CLSI M100-S24; Clinical and Laboratory Standards Institute, Wayne, Pa.). Inocula of the microorganisms were diluted into Mueller-Hinton II (MH-cation adjusted) broth and compared with a 0.5 McFarland standard to give appr. 10^6 colony forming units (CFU)/mL. Aliquots (90 μL) of inoculate were added to 10 μL of MH-II broth+P-80 (Polysorbate 80, 0.002% final concentration, v/v) containing the peptide in serial two-fold dilutions. The following microorganisms were used to determine antibiotic activity of the peptides: Escherichia coli ATCC 25922, Klebsiella pneumoniae SSI #3010^a), Acinetobacter baumannii DSM 30008, Pseudomonas aeruginosa ATCC 27853 and the clinical isolates Escherichia coli 926415^b), Klebsiella pneumoniae 968733^b) and Acinetobacter baumannii 872842^b). Antimicrobial activities of the peptides were expressed as the minimal inhibitory concentration (MIC) in μg/mL at which no visible growth was observed after 18-20 hours of incubation at 35° C. ^a) Obtained from Statens Serum Institut (SSI), Copenhagen, Denmark^b) Obtained from International Health Management Associates, Inc. (IHMA Europe Sàrl), Epalinges, Switzerland

[2] = test system: Acinetobacter baumannii DSM 30008; settings: DSM 30008
Experimental: as §1, §2

[3] = test system: Pseudomonas aeruginosa ATCC 27853; settings: ATCC 27853
Experimental: as §1, §2

[4] = test system: Klebsiella pneumoniae SSI #3010; settings: SSI #3010
Experimental: as §1, §2

[5] = test system: human red blood cells (hRBC); assay: Hemolysis of human red blood cells; settings: red cells of human, 1 h
Experimental: as §1
The peptides were tested for their hemolytic activity against human red blood cells (hRBC). Fresh hRBC were washed three times with phosphate buffered saline (PBS) and centrifuged for 10 min at 2000×g. Compounds (100 μg/mL) were incubated with 20% hRBC (v/v) for 1 h at 37° C. and shaking at 300 rpm. The final erythrocyte concentration was approximately 0.9×10^9 cells/mL. A value of 0% and 100% cell lyses, respectively, was determined by incubation of hRBC in the presence of PBS containing 0.001% acetic acid and 2.5% Triton X-100 in H2O, respectively. The samples were centrifuged, the supernatants were 8-fold diluted in PBS buffer and the optical densities (OD) were measured at 540 nm. The 100% lyses value (OD540H2O) gave an OD540 of approximately 0.5-1.0.
Percent hemolysis was calculated as follows: (OD540peptide/OD540H2O)×100%.

SMILES	Escherichia coli ATCC 25922 MIC [1]	Acinetobacter baumannii DSM 30008 MIC [2]	Pseudomonas aeruginosa ATCC 27853 MIC [3]	Klebsiella pneumoniae SSI #3010 MIC [4]	Hemolysis at 100 μg/mL [5]; 100	Hemolysis at 100 μg/mL ([5]; 100 μg/mL)
CC(C)C[C@@H]1NC(=O)[C@@H](CC(C)C)NC(=O)[C@H](CCN)NC(=O)[C@@H](NC(=O)[C@H](CCN)NC(=O)[C@@H](NC(=O)[C@H](CCN)NC(=O)CC[C@@H]2NC(=O)[C@H](CCN)NC(=O)[C@H](Cc3ccc(O)cc3)NC(=O)[C@H]([C@@H](C)O)NC(=O)[C@H](C(C)C)NC(=O)[C@@H]3CCCN3C(=O)[C@H]3CCN3C(=O)[C@H](CO)NC(=O)[C@H](C)NC(=O)[C@H](C(C)(C)C)NC(=O)[C@H](CCN)NC(=O)[C@H](Cc3c[nH]c4ccccc34)NC(=O)[C@H](CCN)NC(=O)[C@@H](CCN)NC2=O)[C@@H](C)O)CCNC(=O)[C@H]([C@@H](C)O)NC(=O)[C@H](CCN)NC(=O)[C@H](CCN)NC1=O [Ex. 101] (I: cyclo(AS[dAze]PVTY[Dab]E[dDab][Dab]W[Dab][Tle]) / II: [Dab]T[Dab][Dab][Dab][dL]L[Dab][Dab]T; amide I:9-II:N; lactam II:4-II:C)	1 µg/mL	2 µg/mL	0.25 µg/mL	1 µg/mL	4%	
CC(C)C[C@@H]1NC(=O)[C@@H](CC(C)C)NC(=O)[C@H](CCN)NC(=O)[C@@H](NC(=O)[C@H](CCN)NC(=O)[C@@H](NC(=O)[C@H](CCN)NC(=O)CNC(=O)[C@@H]2CCSSC[C@H](NC(=O)[C@@H](N)Cc3c[nH]c4ccccc34)C(=O)N[C@@H](C(C)C)C(=O)N[C@@H](C)C(=O)N[C@@H](CO)C(=O)N3CCC[C@@H]3C(=O)N3CCC[C@H]3C(=O)N[C@@H](CC(C)C)C(=O)N[C@@H](CO)C(=O)N[C@@H](Cc3ccc(O)cc3)C(=O)N2)[C@@H](C)O)CCNC(=O)[C@H]([C@@H](C)O)NC(=O)[C@H](CCN)NC(=O)[C@H](CCN)NC1=O [Ex. 134] (H-WCVAS[dP]PLSY[hCys]G[Dab]T[Dab][Dab][Dab][dL]L[Dab][Dab]T; disulfide 2-11; lactam 16-C)	0.125 µg/mL	0.125 µg/mL	1 µg/mL	0.25 µg/mL		<1%
CC(C)C[C@@H]1NC(=O)[C@H](CCN)NC(=O)[C@@H](CCN)NC(=O)[C@H](CO)NC(=O)[C@@H](NC(=O)[C@@H](NC(=O)[C@H](CCN)NC(=O)[C@@H](N)Cc2c[nH]c3ccccc23)C(C)C)CSSC[C@@H](C(=O)N[C@@H](Cc2ccc(O)cc2)C(=O)N[C@@H](CCN)C(=O)NCC(=O)N[C@@H](CCN)C(=O)N[C@H](C(=O)N[C@@H](CCN)C(=O)N[C@H]2CCNC(=O)[C@H]([C@@H](C)O)NC(=O)[C@H](CCN)NC(=O)[C@H](CCN)NC(=O)[C@H](CC(C)C)NC(=O)[C@@H](CC(C)C)NC(=O)[C@H](CCN)NC2=O)[C@@H](C)O)NC1=O [Ex. 163] (H-W[Dab]VCS[dDab][Dab]LCY[Dab]G[Dab]T[Dab][Dab][Dab][dL]L[Dab][Dab]T; disulfide 4-9; lactam 16-C)	2 µg/mL	1 µg/mL	2 µg/mL	2 µg/mL		<1%
CC(C)C[C@@H]1NC(=O)[C@@H](CC(C)C)NC(=O)[C@H](CCN)NC(=O)[C@@H](NC(=O)[C@H](CCN)NC(=O)[C@@H](NC(=O)[C@H](CCN)NC(=O)CNC(=O)[C@H](CCN)NC(=O)[C@H](Cc2ccc(O)cc2)NC(=O)[C@@H]2CSSC[C@H](NC(=O)[C@@H](NC(=O)[C@H](CCN)NC(=O)[C@@H](N)Cc3c[nH]c4ccccc34)C(C)C)C(=O)N[C@@H](CO)C(=O)N[C@H](C)C(=O)N3C[C@H](O)C[C@H]3C(=O)N[C@@H](CC(C)C)C(=O)N2)[C@@H](C)O)CCNC(=O)[C@H]([C@@H](C)O)NC(=O)[C@H](CCN)NC(=O)[C@H](CCN)NC1=O [Ex. 164] (H-W[Dab]VCS[dA][Hyp]LCY[Dab]G[Dab]T[Dab][Dab][Dab][dL]L[Dab][Dab]T; disulfide 4-9; lactam 16-C)	0.0625 µg/mL	0.25 µg/mL	0.5 µg/mL	0.5 µg/mL		<1%
CC(C)C[C@@H]1NC(=O)[C@@H](CC(C)C)NC(=O)[C@H](CCN)NC(=O)[C@@H](NC(=O)[C@H](CCN)NC(=O)[C@@H](NC(=O)[C@H](CCN)NC(=O)CNC(=O)[C@H](CCN)NC(=O)[C@H](Cc2ccc(O)cc2)NC(=O)[C@@H]2CSSC[C@H](NC(=O)[C@H](Cc3ccc(O)cc3)NC(=O)[C@H](CCN)NC(=O)[C@@H](N)Cc3c[nH]c4ccccc34)C(=O)N[C@@H](CO)C(=O)N3CCC[C@@H]3C(=O)N3CCC[C@H]3C(=O)N[C@@H](CC(C)C)C(=O)N2)[C@@H](C)O)CCNC(=O)[C@H]([C@@H](C)O)NC(=O)[C@H](CCN)NC(=O)[C@H](CCN)NC1=O [Ex. 165] (H-W[Dab]YCS[dP]PLCY[Dab]G[Dab]T[Dab][Dab][Dab][dL]L[Dab][Dab]T; disulfide 4-9; lactam 16-C)	0.5 µg/mL	2 µg/mL	1 µg/mL	1 µg/mL		1%
CC(C)C[C@@H]1NC(=O)[C@H](CCCNC(=N)N)NC(=O)[C@@H](CCN)NC(=O)[C@H](C(C)C)NC(=O)[C@@H](NC(=O)[C@H](Cc2ccc(O)cc2)NC(=O)[C@H](CCN)NC(=O)[C@@H](N)Cc2c[nH]c3ccccc23)CSSC[C@@H](C(=O)N[C@@H](Cc2ccc(O)cc2)C(=O)N[C@@H](CCN)C(=O)NCC(=O)N[C@@H](CCN)C(=O)N[C@H](C(=O)N[C@@H](CCN)C(=O)N[C@H]2CCNC(=O)[C@H]([C@@H](C)O)NC(=O)[C@H](CCN)NC(=O)[C@H](CCN)NC(=O)[C@H](CC(C)C)NC(=O)[C@@H](CC(C)C)NC(=O)[C@H](CCN)NC2=O)[C@@H](C)O)NC1=O [Ex. 166] (H-W[Dab]YCV[dDab]RLCY[Dab]G[Dab]T[Dab][Dab][Dab][dL]L[Dab][Dab]T; disulfide 4-9; lactam 16-C)	2 µg/mL	2 µg/mL	2 µg/mL	2 µg/mL		3%
CC(C)C[C@@H]1NC(=O)[C@@H](CC(C)C)NC(=O)[C@H](CCN)NC(=O)[C@@H](NC(=O)[C@H](CCN)NC(=O)[C@@H](NC(=O)[C@H](CCN)NC(=O)CNC(=O)[C@H]2NC(=O)[C@H](Cc3ccc(O)cc3)NC(=O)[C@H](CO)NC(=O)[C@H](CC(C)C)NC(=O)[C@@H]3CCCN3C(=O)[C@H]3CCCN3C(=O)[C@H](CO)NC(=O)[C@H](C)NC(=O)[C@H](C(C)C)NC(=O)[C@@H](NC(=O)[C@H](Cc3c[nH]c4ccccc34)NC(=N)N)C(C)(C)SSC2(C)C)[C@@H](C)O)CCNC(=O)[C@H]([C@@H](C)O)NC(=O)[C@H](CCN)NC(=O)[C@H](CCN)NC1=O [Ex. 174] (NαAmidinoTrp-[Pen]VAS[dP]PLSY[Pen]G[Dab]T[Dab][Dab][Dab][dL]L[Dab][Dab]T; disulfide 1-10; lactam 15-C)	0.25 µg/mL	0.5 µg/mL	2 µg/mL	0.5 µg/mL		1%

Reference: patent US10829520B2, “Beta-hairpin peptidomimetics” (POLYPHOR AG, priority 2015, dated 2020)
